Experimental data taken from BindingDB's records for patent US20230365541 (Haisco Pharmaceuticals, 2023).
pIC50: −log10 of the molar value.

Molecular target: Histone-lysine N-methyltransferase EZH2 (Homo sapiens, UniProt Q15910)
Assay: EZH2 Enzyme Activity Assay
Method: The compounds were dissolved in DMSO, formulated into 10 mM solutions and serially diluted with DMSO to obtain 100-fold the final concentration. 200 nL of the solutions of the compounds was transferred to a 384-well plate (Perkin Elmer, Cat. No. 6007299) by using Echo550. EZH2 (BPS, Cat. No. 51004) was diluted with 1×assay buffer (50 mM Tris-HCl 9.0, 0.01% Tween-20, 1 mM DTT) to 2-fold the final concentration (EZH2: 3 nM). A mixed solution of H3K27(21-44) and [3H]-SAM (PerkinElmer, Lot. No. 2146246) (H3K27(21-44): 200 nM, [3H]-SAM: 100 nM) was formulated. The EZH2 diluted solution was taken and added to the 384-well plate at 10 μL/well (10 μL of 1×assay buffer was added in the control group). The plate was sealed and then incubated at room temperature for 15 minutes. 10 μL of the mixed solution of H3K27 (21-44) and [3H]-SAM was added to each well. The plate was sealed and then incubated at room temperature for 60 minutes. 50 μM of SAM (Sigma, Cat. No. A7007) was formulated at low temperature and added to the 384-well plate at 10 μL/well. The sample was taken at 25 μL/well, transferred to a flashplate and incubated at room temperature for at least 1 hour. The flashplate was washed 3 times with a plate washing liquid (dH2O+0.1% Tween-20) and read by using Microbeta.

Histone-lysine N-methyltransferase EZH2, sequence (Q15910 whole entry): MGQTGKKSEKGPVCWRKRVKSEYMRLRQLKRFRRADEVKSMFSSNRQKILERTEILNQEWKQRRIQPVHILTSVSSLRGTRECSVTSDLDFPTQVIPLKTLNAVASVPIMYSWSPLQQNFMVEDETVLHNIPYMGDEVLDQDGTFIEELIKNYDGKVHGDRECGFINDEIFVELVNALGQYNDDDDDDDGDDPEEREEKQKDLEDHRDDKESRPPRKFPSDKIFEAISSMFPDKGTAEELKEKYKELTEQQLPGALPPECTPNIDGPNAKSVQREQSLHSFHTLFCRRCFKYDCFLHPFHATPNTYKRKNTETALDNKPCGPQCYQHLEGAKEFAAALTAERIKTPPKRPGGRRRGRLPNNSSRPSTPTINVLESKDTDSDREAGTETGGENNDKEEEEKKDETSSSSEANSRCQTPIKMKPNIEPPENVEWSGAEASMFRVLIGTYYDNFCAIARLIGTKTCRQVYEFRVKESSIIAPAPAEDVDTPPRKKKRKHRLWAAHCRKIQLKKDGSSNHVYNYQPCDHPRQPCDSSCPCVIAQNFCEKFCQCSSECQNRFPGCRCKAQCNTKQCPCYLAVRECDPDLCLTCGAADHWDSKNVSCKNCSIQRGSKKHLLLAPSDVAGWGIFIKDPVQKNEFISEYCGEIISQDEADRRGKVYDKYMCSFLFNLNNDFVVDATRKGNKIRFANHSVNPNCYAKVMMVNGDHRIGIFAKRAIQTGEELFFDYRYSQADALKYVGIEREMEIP

SMILES | pIC50
CNC(=O)N1CCC(C2(C)Oc3c(Cl)cc(C(=O)NCc4c(SC)cc(C)[nH]c4=O)c(C)c3O2)CC1 (configuration not stated) [US20230365541, Compound 13] | 9.37
CSc1cc(C)[nH]c(=O)c1CNC(=O)c1cc(Cl)c2c(c1C)OC(C)(C1CCN(S(C)(=O)=O)CC1)O2 (configuration not stated) [US20230365541, Compound 14] | 9.32
